One series has as its system MHCC97H xenograft tumor. In words: MHCC97H xenograft tumor model. It is filed as in vivo, BALB/c nude mice. The note with it: Tepotinib group (dose not given), ig, calculated through tumor weight. On the procedure: (§1) Male BALB/c nude mice (5-week old, 18–20 g) were purchased from Beijing Vital River Laboratory Animal Technology (Beijing Vital River LaboratoryAnimal Technology Co., Ltd., Beijing,China) and allowed to acclimate for 1 week, maintained at constant room temperature and fed a standard rodent chow and water. 1 × 10^7 cells/mL cancer cells grown in logarithmic phase were harvested and resuspended in FBS-free 1640 medium. Then, 100 μL of the cell suspension was subcutaneously injected into the right flank of each mouse. When the tumour volume was reached about 600–800 mm^3, it was removed, minced into small pieces of equal volume (2 × 2 × 2 mm^3), and transplanted subcutaneously into the nude mice. When the tumour volume was reached about 200–400 mm^3, the xenograft tumour-bearing nude mice were randomly allocated to five groups (vehicle-treated, 1D228-2mgd-treated, 1D228-4mgd-treated […] Tepotinib-treated groups, with 6 or 8 mice (The number of mice were determined according to previous experience on xenograft tumor models) per group. Each group was dosed by intragastric administration (ig) for 7–14 days. Tumour volume and body weights were recorded every day after drug treatment. At the end of the observation period, the animals were euthanized by cervical dislocation and the tumour bulks were peeled off conformed to the Guide for the Care and Use of Laboratory Animals as published by the US National Institutes of Health (NIH Publication No. 85-23, revised 1996) and approved by the Institutional Ethics Review Board of Binzhou Medical University. There was no blinding was done during the animal experiment. No animals were excluded from the analysis.

In another series the test system is ASPC1. Nature of the series: CCK8 antiproliferative assay. It is filed as cell-based. The note with it: Homo sapiens, ASPC1, 72 h, read-out: IC50, cell proliferation. As to the method:
(§2) For cytotoxicity assay, the cells grown in the logarithmic phase were seeded into 96-well plates (7 × 10^3 cells/well) for 24 h, then exposed to different concentrations (10, 5, 1, 0.1, 0.01 and 0.001 μM) of the test compounds for 72 h. After attached cells were incubated with CCK8 (Sigma, USA) for another 1–4 h. Then the absorbance at 450 nm was measured using a multifunction microplate reader (Molecular Devices, Flex Station 3), and each experiment was performed at least in triplicate.

The next series has as its system MKN45. Nature of the series: CCK8 antiproliferative assay. The note with it: Homo sapiens, MKN-45, 72 h, read-out: IC50, cell proliferation. It is filed as cell-based. On the procedure: as §2
In the next series the test system is HS746T. Nature of the series: CCK8 antiproliferative assay. It is filed as cell-based. Conditions: Homo sapiens, Hs746T, 72 h, read-out: IC50, cell proliferation. On the procedure:
as §2

Series [1] is described as follows: Liver microsomal stability assay. Format: in vitro ADME. The note with it: liver microsomes, pH 7.4. As to the method: The incubation system (including 0.1 M PH 7.4 phosphate buffer, NADPH generation system, UGT incubation system, 0.5 mg/mL liver microsomal protein and appropriate concentration of drug to be tested) was incubated in a water bath at 37 °C for […]. Each sample was incubated three times in parallel, and an equal volume of pre-chilled acetonitrile was added at preset reaction time points, such as 0, 5, 10, 15, 30 and 60 min. The reaction was terminated by the addition of acetonitrile. The remaining content of the prototype drug in the warm incubation solution was determined by HPLC, HPLC-MC and HPLC-MC/MC.
In general terms: Microsomes from liver hold many membrane-bound enzymes, among them those of drug oxidation.

The next series relates to MKN45 xenograft tumor. Nature of the series: MKN45 xenograft tumor model. Conditions: 8 mg/kg/d, ig. It is filed as in vivo, BALB/c nude mice. As to the method:
as §1

Another series deals with 284 kinases. Further details: method as in PMID 25736998. The note with it: 100 nM; 284 kinases tested; cited from earlier work.

As usually defined, the half-life is how long it takes for the measured level to halve. A higher half-life goes with slow loss. By TGI is commonly meant the reduction of tumour growth relative to the control group. As to `CN1CCC(COc2cnc(-c3cccc(Cn4nc(-c5cccc(C#N)c5)ccc4=O)c3)nc2)CC1` [Tepotinib, reference compound], the “Tumor growth inhibition (TGI)” value with MHCC97H xenograft tumor is 63.9%. In addition, the IC50 stood at 3.78 µM in the series with ASPC1, 0.00165 µM with MKN45 and 3.6 µM in the series with HS746T. Also, the half-life came out at 0.301 h in series [1] (Sprague-Dawley, rat, SD rats liver microsome); 22.5 h in series [1] (cynomolgus monkey, Macaca fascicularis liver microsome); 1.04 h in series [1] (dog, Beagle liver microsome); 30.5 h in series [1] (Human liver microsome); 0.252 h in series [1] (mouse, CD - 1 mice liver microsome). In the series with MKN45 xenograft tumor, this compound registered a TGI of 67.61%. For the same compound, the “Inhibition of kinases other than c-Met” value with 284 kinases is “not able to inhibit any other kinase”.

The values are drawn from article PMC10636171 (Cell Death & Disease, 2023).
